# Source: patent publication US6479673B1, “Antiretroviral enantiomeric nucleotide analogs” (Institute of Organic Chemistry and Biochemistry of the …, priority 1992, dated 2002)
# Columns and labels:
# HIV-1 = HIV-1 induced cytopathicity in MT-4 cells; format: cell-based, human immunodeficiency virus type 1; conditions: for EC50 HIV-1: MT-4 cells, concentration inhibiting HIV-induced cytopathicity by 50%
# Description: (§1) The activity of the compounds against HIV-1 and HIV-2 induced cytopathicity was examined in human lymphocyte MT-4 cells. […] The infected cell cultures were then incubated at 37° C. for 5 days in a humidified CO2-controlled incubator. Then, the cytopathicity of the virus was examined by determination of MT-4 cell viability by trypan blue dye staining.
# HIV-2 = HIV-2 induced cytopathicity in MT-4 cells; format: cell-based, human immunodeficiency virus type 2; conditions: for EC50 HIV-2: MT-4 cells, concentration inhibiting HIV-induced cytopathicity by 50%
# Description: as §1
# MT-4 cells = experiment: MT-4 cell viability (cytotoxicity); format: cell-based, human; conditions: for CC50: concentration reducing MT-4 cell viability by 50%
# Description: The activity of the compounds against HIV-1 and HIV-2 induced cytopathicity was examined in human lymphocyte MT-4 cells. […]. The infected cell cultures were then incubated at 37° C. for 5 days in a humidified CO2-controlled incubator. Then, the cytopathicity of the virus was examined by determination of MT-4 cell viability by trypan blue dye staining. The results are summarized in Table 1 in comparison with the data on the prototype compounds.
# [1] = test system: Moloney murine sarcoma virus (MSV); experiment: MSV-induced transformation of C3H/3T3 cells; format: cell-based; conditions: concentration inhibiting MSV-induced cell transformation by 50%
# Description: The cells were seeded in 1-ml-wells of a 48-well microtiter plate and exposed to 80 PFU (plaque forming units) for 60-90 minutes. Then, the virus was removed and culture medium containing appropriate concentrations of the test compounds were added (1 ml per well). At day 6 post infection, MSV-induced transformation of the cell culture was examined microscopically.
# C3H/3T3 cells = experiment: Microscopic alteration of C3H/3T3 cell culture morphology; format: cell-based, murine; conditions: concentration that results in a microscopic alteration of C3H/3T3 cell culture morphology
# [2] = test system: Moloney murine sarcoma virus (MSV); experiment: MSV infection in newborn NMRI mice, intraperitoneal administration; format: in vivo; design: protection of the animals against MSV-induced tumor development: unit not given here
# Description: Two gram newborn NMRI mice were injected intramuscularly in the left hind leg with 50 μl of 250-fold diluted stock preparation of Moloney murine sarcoma virus. […] Another group of mice (20 animals) was administered RPMI-1640 medium as placebo. All compounds were solubilized in RPMI-1640 medium. The mice were observed daily for 20 days and the day of tumor initiation and the day of animal death was recorded for each animal. Statistical analyses were performed by calculating the standard deviation.
# [3] = test system: Moloney murine sarcoma virus (MSV); experiment: MSV infection in three-week-old NMRI mice, oral administration; format: in vivo; conditions: twice a day, 100 mg/kg (total dose) daily for five days
# Description: Three-week-old NMRI mice (about 10 grams body weight) were injected intramuscularly in the left hind leg with 50 μl of 20-fold diluted stock preparation of Moloney murine sarcoma virus. Starting 2-4 hours before virus infection,six animals received an orally administered test compound twice a day at 100 mg/kg(total dose) daily for five subsequent days. The control (placebo) group consisted of 14 animals. The experiment was evaluated as described in Example 35.
# retrovirus replication = experiment: Anti-retrovirus activity in vitro (conclusions on HIV and MSV tests); format: cell-based; conditions: in vitro
# herpes viruses = conditions: racemic mixtures, prior art; cited from earlier work
# [4] = 10 mg/kg single dose i.p., NMRI mice
# [5] = 20 mg/kg single dose i.p., NMRI mice
# [6] = 50 mg/kg single dose i.p., NMRI mice
SMILES,EC50 HIV-1 (HIV-1) [µg/mL],EC50 HIV-2 (HIV-2) [µg/mL],CC50 (MT-4 cells) [µg/mL],EC50 MSV [1] [µg/mL],MIC (C3H/3T3 cells) [µg/mL],other results
"C[C@H](Cn1cnc2c(=O)[nH]c(N)nc21)OCP(=O)(O)O [(R)-PMPG, 9-(R)-(2-Phosphonomethoxypropyl)guanine]",1.8,1.7,>100,0.15,40,–
"C[C@H](Cn1cnc2c(N)nc(N)nc21)OCP(=O)(O)O [(R)-PMPDAP, 9-(R)-(2-Phosphonomethoxypropyl)-2,6-Diaminopurine]",0.05,0.06,>100,0.14,>100,"selectivity index (ratio cytotoxic dose/antivirally active dose) (HIV-1; HIV-1): > 2000; selectivity index (ratio cytotoxic dose/antivirally active dose) (HIV-2; HIV-2): > 2000; concentration non-toxic to the cells (MT-4 cells): 100 µg/mL; Mean day of tumor initiation ([2]; 2 mg/kg single dose i.p., NMRI mice): 11 days; percentage of MSV-infected mice still alive at day 20 post infection ([2]; 5 mg/kg single dose i.p.): (90) %; percentage of MSV-infected mice without tumor at day 20 post infection ([2]; 5 mg/kg single dose i.p.): (70) %; Mean day of tumor initiation ([2]; 5 mg/kg single dose i.p., NMRI mice): 12.8 days; percentage of MSV-infected mice still alive at day 20 post infection ([2]; 10 mg/kg single dose i.p.): (90) %; percentage of MSV-infected mice without tumor at day 20 post infection ([2]; 10 mg/kg single dose i.p.): (90) %; Mean day of tumor initiation [2, 4]: 11.5 days; percentage of MSV-infected mice still alive at day 20 post infection ([2]; 20 mg/kg single dose i.p.): (95) %; percentage of MSV-infected mice without tumor at day 20 post infection ([2]; 20 mg/kg single dose i.p.): (95) %; Mean day of tumor initiation [2, 5]: 11 days; anti-MSV activity in vivo relative to (R)-PMPA ([2]; i.p., NMRI mice): five fold superior over (R)-PMPA; protection of the animals against MSV-induced tumor development ([2]; single dose of 10-20 mg/kg i.p.): 90-95; Mean day of tumor initiation [3]: 7.5 ± 1.0^*) day; Number of mice developing tumor (%) [3]: 67%; EC50 retrovirus replication (retrovirus replication): 0.01 to 0.1 µg/mL"
"Nc1nc(N)c2ncn(C[C@H](CF)OCP(=O)(O)O)c2n1 [(R)-FPMPDAP, reference compound]",1.4,1.5,>100,1.7,>100,"Mean day of tumor initiation [2, 4]: 5.6 ± 1.0 days; percentage of MSV-infected mice still alive at day 20 post infection ([2]; 25 mg/kg single dose i.p.): (15%); Mean day of tumor initiation ([2]; 25 mg/kg single dose i.p., NMRI mice): 7.7 ± 1.9 days; percentage of MSV-infected mice still alive at day 20 post infection ([2]; 50 mg/kg single dose i.p.): (10%); Mean day of tumor initiation [2, 6]: 7.75 ± 1.3 days"
"Nc1ncnc2c1ncn2C[C@H](CF)OCP(=O)(O)O [(R)-FPMPA, reference compound]",83,54,>100,>100,>100,"Mean day of tumor initiation [2, 5]: 4.3 ± 0.48 days; Mean day of tumor initiation [2, 6]: 4.7 ± 0.67 days"
"C[C@@H](Cn1cnc2c(=O)[nH]c(N)nc21)OCP(=O)(O)O [(S)-PMPG, 9-(S)-(2-Phosphonomethoxypropyl)guanine]",1.2,1.3,45,0.95,8,–
CC(Cn1cnc2c(=O)[nH]c(N)nc21)OCP(=O)(O)O (centres unmarked) [PMPG],–,–,–,–,–,antiherpetic effect (in words) (herpes viruses): appeared due to its substantial cytotoxicity
"C[C@@H](Cn1cnc2c(N)nc(N)nc21)OCP(=O)(O)O [(S)-PMPDAP, 9-(S)-(2-Phosphonomethoxypropyl)-2.6-Diaminopurine]",2.0,4.0,>100,2.9,>100,–
